Target: T1, mouse SGLT4 (Mus musculus, UniProt Q8VDT1)
T1 construct: expressed in transfected cells; host or cells: HEK293T
T1 sequence (Q8VDT1 1-685): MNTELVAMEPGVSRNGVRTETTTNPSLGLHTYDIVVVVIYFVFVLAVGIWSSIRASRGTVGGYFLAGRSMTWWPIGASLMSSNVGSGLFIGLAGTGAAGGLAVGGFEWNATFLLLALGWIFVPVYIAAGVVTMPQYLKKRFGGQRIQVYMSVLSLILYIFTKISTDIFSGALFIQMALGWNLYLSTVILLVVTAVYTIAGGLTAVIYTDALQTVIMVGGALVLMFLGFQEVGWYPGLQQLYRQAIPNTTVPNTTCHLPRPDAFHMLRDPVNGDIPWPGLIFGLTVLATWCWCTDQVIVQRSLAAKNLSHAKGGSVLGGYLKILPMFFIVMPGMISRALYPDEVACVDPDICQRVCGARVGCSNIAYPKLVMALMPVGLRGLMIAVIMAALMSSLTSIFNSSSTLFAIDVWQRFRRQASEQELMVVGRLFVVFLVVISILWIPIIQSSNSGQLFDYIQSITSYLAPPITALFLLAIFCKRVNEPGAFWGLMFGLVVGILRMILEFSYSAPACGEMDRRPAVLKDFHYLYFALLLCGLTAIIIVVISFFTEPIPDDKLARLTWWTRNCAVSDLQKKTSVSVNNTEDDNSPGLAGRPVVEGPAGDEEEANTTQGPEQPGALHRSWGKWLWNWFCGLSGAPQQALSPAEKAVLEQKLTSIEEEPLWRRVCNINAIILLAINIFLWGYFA
Test: Radioactive uptake assay (saturation kinetics) in HEK293T cells expressing mouse SGLT4
Assay type: cell-based
Procedure: For a typical transporter experiment we proceeded as follows. […] To minimize cell loss during the various washing steps in the radioactive uptake experiments, the wells where the cells were seeded were previously coated with poly- D-lysine, which improved their adhesion to the plastic surface of the wells. For this, each well of the 24-well plates was treated with 200 µl of a 0.01% poly-L-lysine solution for 10 min, washed 3 times with 1 ml of sterilized water and left to dry for 2 h. Only then could the 24-well plates be seeded with the appropriate cell lines and cultured overnight at 37 °C in 5% CO2.
On day two, the radioactive uptake assay could be performed. The cell culture media was removed by aspiration and cells were incubated for 20 min at 37 °C and 5% CO2 with a basal medium (10 mM HEPES, pH 7.4, 1 mM CaCl2, 1 mM MgCl2, 2 mM KCl) containing 140 mM choline chloride to deplete intracellular […] ions. This was subsequently replaced with the uptake medium (basal medium + 140 mM NaCl, 25 μM cytochalasin B, 1 mg/ml BSA) containing either radioactive U-[^14C]-mannose (15,000 cpm/well) or 2-[^3H]-1,5-AG (30,000 cpm/well) and respectively, non-radioactive mannose or 1,5-AG, at the required concentration in the experiment. Importantly, when measuring the transport of mannose, the uptake media also contained 0.5 mM glucose. This resulted from the need to reduce the background transport of mannose in control HEK293T cells in order to optimize the transport assay for this sugar in our model cell lines. Consequently, after testing various inhibitors (Supplementary Fig. 1), 0.5 mM glucose + 25 µM cytochalasin B appeared as the best combination to decrease efficiently the endogenous transport of mannose in control cells without affecting the transport of mannose in model cell lines overexpressing SGLT4 and SGLT5. […]
Once the uptake medium was added to the cells, the plates were incubated at 37 °C in 5% CO2 during the required time. […] In each experiment, the transport activities were calculated after subtracting a “blank” value, corresponding to the radioactivity in the appropriate control cells (HEK293T cells that were stably or transiently transfected with one of the parent plasmids pEF6/MycHisA, pEF6HisB, pUB82 or pUB83 with no inserted cDNA) that were analyzed in parallel. […]
Supplementary Fig. 4: Transport activities for 1,5-anhydroglucitol and mannose of recombinant mouse SGLT4 and SGLT5 isoforms measured in HEK293T cells.
Transport was measured in 24 well plates with 0.6x10^6 cells during 30 mins at 37°C in 5% CO2 in the presence of the indicated concentrations of 2-[1H+3H]-1,5-AG for both mSGLT4 (A) and mSGLT5 (B) and U-[12C+14C]-mannose (C) for mSGLT4. […]

SMILES	mSGLT4 Vmax (30 min, Supplementary Fig. 4)	Km of mouse SGLT4 lower for mannose than for 1,5-AG (mannose versus 1,5-AG)	Km (30 min, Supplementary Fig. 4, read-out: mSGLT4 Km)
OC[C@H]1OC(O)[C@@H](O)[C@@H](O)[C@@H]1O (stereo partly shown) [Mannose, mannose]	29 pmol/min/100 000 cells	25 fold	–
OC[C@H]1OC[C@H](O)[C@@H](O)[C@@H]1O [1,5-AG, 1,5-anhydroglucitol]	152 pmol/min/100 000 cells	–	> 5 mM

Source: paper PMC10439028, “SGLT5 is the renal transporter for 1,5-anhydroglucitol, a major player in two rare forms of neutropenia” (Cellular and Molecular Life Sciences: CMLS, 2023)
